Test results as given in patent publication US9795595B2, “Methods for treating cancer” (Boston Biomedical, Inc., priority 2014, dated 2017).

What was measured:
cancer stem cell markers = experiment: Cancer stem cell markers in biopsied tumor tissue of study patients; type: in vivo, human
Experimental: Escalating doses from 10 mg to 450 mg once daily were administered to 26 patients. Maximum tolerated dose (MTD) was not reached. […] Of 20 evaluable patients, 11 (55%) had stable disease (SD) with a median time to progression of 16 weeks.
Encouraging signs of anti-tumor activity have been observed in pretreated patients with advanced cancer.

Advanced Solid Tumors = experiment: Dose escalation study of the Compound of the Invention in adult patients with advanced solid tumors (Phase I); type: in vivo
Text: In this study, the Compound of the Invention was given orally, continuously, in 28-day cycles until disease progression, unacceptable toxicity, or other discontinuation criteria were met.

nuclear NANOG = experiment: Needle biopsy tumor samples before and after 28 days treatment, phase I patients: nuclear NANOG staining; type: in vivo, human; conditions: after 28 days treatment, patient with positive NANOG and STK33 staining
Experimental: (§1) Understanding the clinical relevance of the stemness markers and identifying predictive biomarkers assists clinical development by selecting patients that will most likely to derive clinical benefit from treatment with the Compound of the Invention. In current studies, we studied stemness gene marker in biopsy tumor as well as archival tumor samples from patients. […] Archival tissue from patients receiving the Compound of the Invention was analyzed via immunohistochemistry to determine whether response to the drug was correlated with either NANOG or STK33. […] Importantly, 90.9% of the tumors with STK33 nuclear staining were also positive for nuclear NANOG staining and there was a significant correlation between nuclear STK33 and nuclear NANOG (P<0.0022).

nuclear STK33 = experiment: Needle biopsy tumor samples before and after 28 days treatment, phase I patients: nuclear STK33 staining; type: in vivo, human; conditions: after 28 days treatment, patient with positive NANOG and STK33 staining
Experimental: as §1

Compound: CCN(CC)CCNC(=O)c1c(C)[nH]c(/C=C2\C(=O)Nc3ccc(-c4csc(-c5ccccc5)n4)cc32)c1C [Compound of the Invention]
- Inhibition of cancer stem cell markers (cancer stem cell markers): inhibition of cancer stem cell markers was observed
- Patients with tumor regression and/or prolonged stable disease (≧16 weeks), percent (Advanced Solid Tumors): 50%
- Grade 3 diarrhea, number of subjects (Advanced Solid Tumors; 450 mg once daily): 2 subjects
- Number of Patients with minor regression or SD ≧16 wks. (Advanced Solid Tumors; Colorectal Cancer, 5 patients evaluable): 3
- Number of Patients with minor regression or SD ≧16 wks. (Advanced Solid Tumors; Gastric/GEJ Adenocarcinoma, 1 patient evaluable): 1
- Number of Patients with minor regression or SD ≧16 wks. (Advanced Solid Tumors; Head & Neck Cancer, 2 patients evaluable): 2
- Number of Patients with minor regression or SD ≧16 wks. (Advanced Solid Tumors; Hepatocellular Carcinoma, 2 patients evaluable): 1
- Number of Patients with minor regression or SD ≧16 wks. (Advanced Solid Tumors; Non-Small Cell Lung Cancer, 1 patient evaluable): 1
- Number of Patients with minor regression or SD ≧16 wks. (Advanced Solid Tumors; Pancreatic Neuroendocrine, 1 patient evaluable): 1
- Number of Patients with minor regression or SD ≧16 wks. (Advanced Solid Tumors; Renal Cell Carcinoma, 1 patient evaluable): 1
- Maximum tolerated dose (MTD) (Advanced Solid Tumors; escalating doses 10 mg to 450 mg once daily, oral, 28-day cycles, 26 patients): not reached
- Adverse events (Advanced Solid Tumors; including grade 1, 2 diarrhea, abdominal cramping, nausea, anorexia): mild GI adverse events
- Patients with stable disease (SD), number (Advanced Solid Tumors; of 20 evaluable patients): 11
- Patients with stable disease (SD), percent (Advanced Solid Tumors; of 20 evaluable patients): 55%
- Patients with tumor regression and/or prolonged stable disease (≧16 weeks), number (Advanced Solid Tumors; of those patients with SD): 10
- Recommended Phase II Dose (RP2D) (Advanced Solid Tumors; once daily, oral): 300 mg
- Pharmacokinetic exposure relative to predicted therapeutic level (Advanced Solid Tumors; oral, once daily): well above the predicted therapeutic level
- Plasma concentration versus dose (Advanced Solid Tumors; oral, once daily): dose-dependent increases in plasma concentration up to 300 mg once daily
- Tolerability (Advanced Solid Tumors; oral, once daily, 10 mg to 450 mg): well tolerated
- Overall survival (Advanced Solid Tumors; patients with high levels of nuclear STK33 in archival tissue, P<0.0097): improved
- Median progression free survival (PFS) (Advanced Solid Tumors; patients with high levels of nuclear STK33 in archival tissue, P<0.0273): improved
- Median time to progression (Advanced Solid Tumors; patients with stable disease): 16 weeks
- Reduction of nuclear NANOG (nuclear NANOG): potent in reducing nuclear NANOG
- Reduction of nuclear STK33 (nuclear STK33): potent in reducing nuclear NANOG and STK33
